In patent publication US20260191889A1, “TREHALOSE FOR TREATING HUNTINGTON'S DISEASE” (GLD Debt Acquisition 2025-1, priority 2022, published 2026):

Assays:
[1] = test system: transgenic R6/2 mice (a disease model for Huntington's Disease); experiment: Body weight of R6/2 mice after treatment with MT; assay type: in vivo, Mus musculus; conditions: MT 5 g/kg i.p. 5 times per week, average±standard error (±0.6), vehicle 16.5, wild-type 30.7
Method: Eleven male mice were treated with trehalose 5 g/kg (i.p. injection, 25 ml/kg, trehalose dose formulation concentration: 0.2 g/ml, with active trehalose corresponding to 5.252 g/kg of trehalose dihydrate), 5 times per week starting at 4 weeks of age. There were a total of 41 doses or doses stopped when mice were euthanized. Mice were euthanized at 8 weeks after first trehalose dose (12 weeks of age, n=8). n=3 mice/group were monitored until survival.
Body Weights—Body weights were monitored twice per week throughout the study for all animals. Pre-trehalose treatment onset baseline body weight was used to assign the animals to experimental groups. Terminal body weights were not registered from animals found dead or euthanized moribund.
MT was administered to mice i.p. 5 times per week (from Monday to Friday). Dose volume was 25 ml/kg. Dose was 5 g/kg. Pure trehalose dose formulation concentration was 0.2 g/ml. The last dose of animals euthanized at 8 weeks post infusion (age week 12) was 30 min prior to terminal sampling.
Body Weight—Comparisons between two groups used a two-way Mixed-effects model (Mixed Anova) with Geisser-Greenhouse correction (not assuming sphericity), followed by Fisher's LSD test between the two groups performed for each time point. Time, group and the interaction of Time×Group were fixed effects, and the individual subject was the random effect. […]

[2] = test system: Iba-1; experiment: Iba-1 immunohistochemistry in brain of R6/2 mice; assay type: in vivo, Mus musculus; conditions: MT-treated vs untreated transgenic R6/2 mice, FIG. 5
Method: Cryosectioning—Cryosectioning was performed to striatal (left hemisphere) (Bregma +1.30 mm to −0.8 mm from Bregma, containing the infusion site at +0.5 mm) region and sections were collected as 20 μm thick sections on slides. A series of sections consisted of 8 sections with an interval of 300 μm in-between each section. A total of 5 series were collected from the target region using subsequent slides. For phase I, Series 1 & 3 were used for IHC analysis of EM48, series 2 was used for Darpp-32, series 4 was used for Iba1+GFAP and Series 5 was used for piloting and negative controls. For phase II, A total of 6 series were collected from the target region using subsequent slides. Series 1 was used for IHC analysis of EM48, series 2 was used for Darpp-32, series 4 was used for Iba1+GFAP. […]
For fluorescence immunohistochemistry (GFAP and Iba-1) the following general protocol was applied: […]
Antigen expression analyses—The stained sections were scanned with the Olympus VS120 slide scanner using the proper fluorescent or brightfield channels. The regions of interest (ROIs) (striatum/cortex) were analyzed for positive immunostaining of the respective targets (EM48, DARPP-32, GFAP and Iba1) applying the VIS—Visiopharm Integrator System (Visiopharm, Denmark).
Positive staining of the respective antigens was detected by applying a suitable threshold which recognizes only truly positive staining. […]

OC[C@H]1O[C@H](O[C@H]2O[C@H](CO)[C@@H](O)[C@H](O)[C@H]2O)[C@H](O)[C@@H](O)[C@@H]1O [MT, trehalose]
average final body weight [1]: 21.5 g
levels of Iba-1 in the striatum (IHC, % staining area) [2]: lower levels
